Assay results taken from US10285947B2, “Lyophilized preparations of melphalan flufenamide” (priority 2012, dated 2019).
Where a name gives a salt, the structure may show the parent alone.

Assays:
[1] = Stability of previous preparation in DMA in a glucose solution; format: physicochemical; details: dissolved in DMA (dimethylacetamide) in a glucose solution
Source text: In previous preparations, melphalan flufenamide was obtained from synthesis as a white powder in crystalline form. This crystalline form can only be dissolved in highly acidic aqueous solutions, which for practical manufacturing purposes is impossible. […] Therefore, previously melphalan flufenamide was instead dissolved in DMA (dimethylacetamide) in a glucose solution. The preparation is feasible but is unstable: 7% degradation/h. Furthermore, dimerization occurs and the solution turns bright yellow. This preparation was, however, unreliable and the polymerization rate varied in an unacceptable manner.

[2] = test system: tumors; details: even at lower concentrations than melphalan; cited from earlier work
[3] = Dissolution rate of lyophilized J1/sucrose in 5% glucose solution (Example 1); format: physicochemical; details: lyophilized 0.1 mg J1 and 0.2 mg sucrose, 0.5 ml 5% glucose solution
Method: The speed of dissolution of melphalan flufenamide hydrochloride (J1) by addition of sucrose to the freeze-drying process of J1 was tested. Sucrose is a formulation agent Generally Considered As Safe (GRAS) according to the FDA (US Food and Drug Administration).
A solution of J1 (5 mg) was made in tert-butanol:water 1:1 (5 ml). 100 μl of the solution was added to a vial containing 0.2 mg sucrose. The vial was covered with aluminium foil and frozen on dry ice-acetone. The vial consisted of 0.1 mg J1 and 0.2 mg sucrose. The vial with sample was thereafter freeze-dried overnight. Freeze-drying was performed on a Leybold Lyovac GT2 equipment.
A 5% glucose solution (100 ml) was prepared and the internal marker 3-methoxy-benzoic acid (0.8 mg/ml) was added to the solution.
0.5 ml of the glucose solution from step 2, was added to the freeze-dried vial with J1 sample from step 1. The vial was shaken at room temperature for 15 seconds and thereafter filtered and transferred to a glass vial for J1 concentration measurement, with HPLC. The amount of dissolved J1 was determined using HPLC and a calibration curve.

[4] = Stability test of J1 solution (HPLC), Example 6; format: physicochemical
Method: Stability of the solution containing J1 and tert-butanol:water, 1:1 (v/v), was tested. A solution comprising tert-butanol:water 1:1 (v/v) and J1 at a concentration of 1 mg/ml, was left at room temperature for 5 days.

[5] = tert-butanol:water 1:1 (v/v), 1 mg/ml, room temperature, 5 days

| SMILES | degradation [1] [% degradation/h] | cell killing activity against tumors [2] | % of J1 dissolved in 15 seconds ([3]; room temperature) | concentration of J1 dissolved in the glucose solution during 15 seconds ([3]; shaken at room temperature 15 seconds) [µg/mL] | degradation compared with tert-butanol:water solution ([4]; J1 dissolved in an acidic ethanol-water solution) | amount of J1 by HPLC signal after 5 days [4, 5] [%] | decrease of J1 HPLC signal [4, 5] [%] | amount of J1 by HPLC signal, initial ([4]; tert-butanol:water 1:1 (v/v), 1 mg/ml, room temperature, start) [%] |
| --- | --- | --- | --- | --- | --- | --- | --- | --- |
| CCOC(=O)[C@H](Cc1ccc(F)cc1)NC(=O)[C@@H](N)Cc1ccc(N(CCCl)CCCl)cc1 [melphalan flufenamide, melphalanyl-L-p-fluorophenylalanine ethyl ester] | 7 | increased cell killing activity | – | – | – | – | – | – |
| CCOC(=O)[C@H](Cc1ccc(F)cc1)NC(=O)[C@@H](N)Cc1ccc(N(CCCl)CCCl)cc1 [Sample J1, melphalanyl-L-p-fluorophenylalanine ethyl ester hydrochloride] | – | – | approximately 40% | 80 | much more rapid | 85.5 | 11.7 | 97.2 |
